Where “and” joins values, the source holds several entries; their conditions need not be identical. Identical values can stand only once.
System: 276233-004-R-J1-PDC KRAS spheroids with HUVEC/MSC, viability
Assay: Anticancer human tumor 276233-004-R-J1-PDC patient-derived colon adenocarcinoma cell line growth inhibition [KRAS2]
Settings: for viability, T/C: stronger effect = lower value
Outline: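 KRAS-mutant tumor cells were grown as spheroids with HUVEC endothelial cells and human MSCs as stroma. Targeted agents were tested alone and with KRAS pathway inhibitors. Doses started at or near clinical Cmax, or 10 microM, descending half-log.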

[1] = curve of first compound, second compound 0.1 µM
[2] = curve of first compound, second compound 0.316 µM
[3] = curve of first compound, second compound 1 µM
[4] = curve of first compound, second compound 3.16 µM
[5] = curve of first compound, second compound 10 µM
[6] = second compound 0.1 µM, first compound 0.0316 µM
[7] = second compound 0.1 µM, first compound 0.1 µM
[8] = second compound 0.1 µM, first compound 0.316 µM
[9] = second compound 0.1 µM, first compound 1 µM
[10] = second compound 0.1 µM, first compound 3.16 µM
[11] = second compound 0.1 µM, first compound 10 µM
[12] = second compound 0.316 µM, first compound 0.0316 µM
[13] = second compound 0.316 µM, first compound 0.1 µM
[14] = second compound 0.316 µM, first compound 0.316 µM
[15] = second compound 0.316 µM, first compound 1 µM
[16] = second compound 0.316 µM, first compound 3.16 µM
[17] = second compound 0.316 µM, first compound 10 µM
[18] = second compound 1 µM, first compound 0.0316 µM
[19] = second compound 1 µM, first compound 0.1 µM
[20] = second compound 1 µM, first compound 0.316 µM
[21] = second compound 1 µM, first compound 1 µM
[22] = second compound 1 µM, first compound 3.16 µM
[23] = second compound 1 µM, first compound 10 µM
[24] = second compound 3.16 µM, first compound 0.0316 µM
[25] = second compound 3.16 µM, first compound 0.1 µM
[26] = second compound 3.16 µM, first compound 0.316 µM
[27] = second compound 3.16 µM, first compound 1 µM
[28] = second compound 3.16 µM, first compound 3.16 µM
[29] = second compound 3.16 µM, first compound 10 µM
[30] = second compound 10 µM, first compound 0.0316 µM
[31] = second compound 10 µM, first compound 0.1 µM
[32] = second compound 10 µM, first compound 0.316 µM
[33] = second compound 10 µM, first compound 1 µM
[34] = second compound 10 µM, first compound 3.16 µM
[35] = second compound 10 µM, first compound 10 µM
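Note: cells exposed to agents for seven days before viability read.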
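Throughout, for viability, T/C: 100% = DMSO vehicle control wells and lower values mean fewer viable cells.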

Compound	IC50 [1] [µM]	IC50 [2] [µM]	IC50 [3] [µM]	IC50 [4] [µM]	IC50 [5] [µM]	viability, T/C [6] [%]	viability, T/C [7] [%]	viability, T/C [8] [%]	viability, T/C [9] [%]	viability, T/C [10] [%]	viability, T/C [11] [%]	viability, T/C [12] [%]	viability, T/C [13] [%]	viability, T/C [14] [%]	viability, T/C [15] [%]	viability, T/C [16] [%]	viability, T/C [17] [%]	viability, T/C [18] [%]	viability, T/C [19] [%]	viability, T/C [20] [%]	also measured
CCNC(=O)CC1N=C(c2ccc(Cl)cc2)c2cc(OC)ccc2-n2c(C)nnc21 (centres undefined) + CC1OCC2(CCN(c3cnc(Sc4ccnc(N)c4Cl)c(N)n3)CC2)C1N	> 10	7.12	3.16	0.392	0.53	94.5	85.6	71.5	66.8	56.4	72.8	89	73.1	73.6	58.2	52.5	49.1	79.8	71.5	63.9	viability, T/C [21]: 52.5%; viability, T/C [22]: 46.9%; viability, T/C [23]: 52.2%; viability, T/C [24]: 72.6%; viability, T/C [25]: 71.6%; viability, T/C [26]: 51.5%; viability, T/C [27]: 44.4%; viability, T/C [28]: 43.3%; viability, T/C [29]: 41.4%; viability, T/C [30]: 55%; viability, T/C [31]: 56.6%; viability, T/C [32]: 52.2%; viability, T/C [33]: 48.2%; viability, T/C [34]: 41.6%; viability, T/C [35]: 42.4%
CC1OCC2(CCN(c3cnc(Sc4ccnc(N)c4Cl)c(N)n3)CC2)C1N (centres undefined)																					viability, T/C (compound 0.0316 µM): 83.3% and 88.2% and 102%; IC50 (compound alone, run of 07/19/2021): > 10 µM; IC50 (compound alone, run of 07/26/2021): > 10 µM; IC50 (curve of compound): > 10 µM
CC1(C)CCC(CN2CCN(c3ccc(C(=O)NS(=O)(=O)c4ccc(NCC5CCOCC5)c([N+](=O)[O-])c4)c(Oc4cnc5[nH]ccc5c4)c3)CC2)=C(c2ccc(Cl)cc2)C1 + CC1OCC2(CCN(c3cnc(Sc4ccnc(N)c4Cl)c(N)n3)CC2)C1N	> 10	5.97	3.18	2.57	3.2	78.6	91.9	72.4	116	74.8	54.9	89.7	77.9	89.2	81	63.7	39	67.3	75	85.7	viability, T/C [21]: 62.3%; viability, T/C [22]: 51.6%; viability, T/C [23]: 27.2%; viability, T/C [24]: 69.1%; viability, T/C [25]: 62.6%; viability, T/C [26]: 77.5%; viability, T/C [27]: 81.1%; viability, T/C [28]: 45%; viability, T/C [29]: 24.8%; viability, T/C [30]: 60.1%; viability, T/C [31]: 72%; viability, T/C [32]: 65.8%; viability, T/C [33]: 72.7%; viability, T/C [34]: 50.4%; viability, T/C [35]: 14.4%

Source: PubChem BioAssay AID1963873 (Molecular Pharmacology Branch, DTP, NCI, 2024)
